According to BindingDB's records for doi:10.7270/Q2251GKR (Vanderbilt Screening Center for GPCRs, Ion Channels and …, 2010):
pEC50: −log10 of the molar value.

Molecular target: T1, Muscarinic acetylcholine receptor M4 (Rattus norvegicus, UniProt P08485)
T1 sequence (P08485 whole entry): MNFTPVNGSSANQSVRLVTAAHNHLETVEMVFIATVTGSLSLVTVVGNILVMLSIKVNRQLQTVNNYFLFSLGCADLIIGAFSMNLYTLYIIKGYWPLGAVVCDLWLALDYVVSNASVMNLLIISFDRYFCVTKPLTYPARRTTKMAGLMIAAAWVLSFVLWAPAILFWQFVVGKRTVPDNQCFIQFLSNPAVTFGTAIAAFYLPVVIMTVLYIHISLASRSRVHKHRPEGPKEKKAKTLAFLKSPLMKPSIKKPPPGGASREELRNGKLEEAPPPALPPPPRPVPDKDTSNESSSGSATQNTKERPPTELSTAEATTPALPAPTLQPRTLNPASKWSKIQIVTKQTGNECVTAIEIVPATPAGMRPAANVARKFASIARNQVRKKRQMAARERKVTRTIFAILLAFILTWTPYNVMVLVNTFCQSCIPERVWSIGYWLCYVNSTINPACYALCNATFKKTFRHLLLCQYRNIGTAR
Test: potentiation of acetylcholine response at rM4 – cell-based, analogs, calcium mobilization, Gqi5, SAR follow-up (AID 1923)

Q: Cc1cc(C)c2c(N)c(C(=O)NCc3ccc4c(c3)OCO4)sc2n1 [3-amino-4,6-dimethyl-N-piperonyl-thieno[2,3-b]pyridine-2-carboxamide] was tested. Which pEC50 did it give?
A: 6.43
